Measured values taken from patent publication US20030162759A1, “Aldosterone blocker therapy to prevent or treat inflammation-related disorders” (priority 2000, published 2003).
“And” between values parts separate entries of the source, which are not always exact repeats. Equal values may be shown once. “Also recorded” adds a separate entry of the source.

Legend:
Format in all cases: in vivo, rat
[1] = test system: Intercellular Adhesion Molecule-1 (ICAM-1); test: Assay C: ICAM-1 relative mRNA expression in heart (TaqMan); details: for ICAM, Mean / ICAM: mRNA; for ICAM, Mean: group mean; for ICAM: individual rats; for ICAM-1 mRNA expression in myocardium: time course 7, 14, 30 days, eplerenone 100 mg/kg/day
Protocol: (§1) The procedure of Assay B was expanded upon in a further study. […] Myocardial tissue from animals in each treatment group was examined after 7, 14, or 30 days of treatment.
(§2) Potassium chloride supplementation was added to the saline solution in order to prevent the potential hypokalemia associated with aldosterone excess.
(§3) At the time of the surgery, an Alzet 2002 osmotic minipump (Alza Corp., Palo Alto, Calif.) containing either vehicle (9% ethanol/87% propylene glycol/4% dH2O) or 1.0 mg/mL d-aldosterone (Sigma Chemical, St. Louis, Mo.) was inserted subcutaneously at the nape of the neck. Aldosterone was administered at a dose of 0.75 g/hour. […] Animals were sacrificed from each group (n=8-13) after 7, 14, or 30 days of treatment.
(§4) The fluorogenic 5′-nuclease assay (TaqMan PCR) using Applied Biosystems' 7700 Sequence Detection System (Applied Biosystems, Foster City, Calif.) allowed for real time detection/quantitation of a specific gene by monitoring the increase in fluorescence of a gene-specific, dye-labeled oligonucleotide probe. Probes for target and reference genes were labeled at the 5′-end with a 6-carboxyfluorescein (6FAM) reporter dye and at the 3′-end with a 6-carboxy-N,N,N′,N′-tetramethylrhodamine (TAMRA) quencher dye. When the probe was annealed to the target gene, fluorescence of 6FAM was prevented by the close proximity of TAMRA. The exonuclease activity of Taq polymerase released the dyes from the oligonucleotide probe by displacing the probe from the target sequence resulting in fluorescence excitation in direct proportion to the amount of target message present. Data analysis was performed using the Sequence Detection System software from Applied Biosystems.
All primers and probes were designed using Primer Express software supplied with the 7700 Sequence Detection System and synthesized by Applied Biosystems. Standard curves using 5-fold dilutions of total RNA (from 200 ng to 320 pg) were performed to determine the efficiency of each primer/probe set in the TaqMan reaction prior to the analysis of the experimental samples. Primer/probe sets were designed from known sequences of rat genes to be analyzed. All target gene values were normalized to a reference gene, constitutively expressed cyclophilin. Primer/probe set sequences can be found in Table 8.
RNA was extracted from frozen (−80° C.) rat heart tissue using the Totally RNA Isolation Kit (Ambion, Inc., Austin, Tex.). Tissue was crushed using a stainless steel mortar and pestle, which had been chilled to −80° C. and transferred to a dounce homogenizer (Kontes, Vineland, N.J.) containing 3-10 mL cold denaturation buffer. Tissue was homogenized and transferred to a sterile, 15 mL polypropylene centrifuge tube. An equal volume of phenol:chloroform:isoamyl alcohol (25:24:1) was added, samples were shaken vigorously for 1 min, and incubated on ice for at least 15 min. Samples were centrifuged for 30 min at 10,000 g. The aqueous phase was removed, 1/10 volume of a sodium acetate solution (3.0 M NaOAc pH 4.5) was added, samples were shaken or inverted for 10 seconds, and acid-phenol (premixed with isoamyl alcohol):chloroform (5:1, Ambion, Inc.) was added at an volume equivalent to the starting sample volume. Samples were shaken vigorously for 1 min, followed by a 15-min incubation on ice, and centrifuged for 30 min at 10,000 g. The aqueous phase removed and placed in a clean polypropylene tube. An equal volume of isopropanol (Sigma, St. Louis, Mo.) was added and the samples were mixed and incubated overnight at −20° C. The samples were centrifuged for 30 min at 10,000 g, the supernatant was removed and the RNA pellet was resuspended in DNAse/RNAse-free water. Samples were frozen at −80° C. for at least 2 hours, thawed on wet ice, and diluted for quantitation.

Collagen I = test: Assay C: Collagen I mRNA in left ventricle (TaqMan); details: for Collagen type-I message: 30 days, compared to vehicle+salt controls; for Collagen-I mRNA: individual rats
Protocol: as §1, §2, §3
(§5) Following exsanguination, hearts and kidneys were isolated, removed, rinsed in cold phosphate-buffered saline, and blotted dry. Kidneys were immediately bifurcated through the long axis with a razor blade and placed in 10% neutral buffered formalin (NBF, Richard-Allen Scientific, Kalamazoo, Mich.). For the hearts, the right ventricle (RV) was cut away from the left ventricle (LV), both ventricles were weighed using a Mettler AE163 balance (Mettler-Toledo, Inc., Hightstown, N.J.), and the RV was placed in 10% NBF. A 2 mm coronal slab of the LV apex was removed and frozen with dry ice/isopentane for analysis of gene expression and the remaining portion of the LV was placed in 10% NBF for fixation. Final wet trimming was completed after 3-4 days fixation where a second 2 mm coronal slab was removed for hydroxyproline analysis and a third 2 mm slab was removed from the equatorial region for histology.
as §4
(§6) Primers and probes were designed using Oligo Primer Analysis Software, Version 5.0 (National Biosciences Inc. (NBI)-Wojciech Rychlik, Cascade, Colo.). Primers were synthesized by Life Technologies (Grand Island, N.Y.) and probes were synthesized by Applied Biosystems. Primer/probe sets were designed from known sequences of rat genes to be analyzed. All target gene values were normalized to a reference gene, constitutively expressed cyclophilin. Primer/probe sets sequences can be found in Table 8
(§7) RNA was extracted from frozen (−70° C.) left ventricle (LV) tissue (approximately 10-20 mg) using 1.5 mL RNA-STAT 60 according to manufacturer's instructions (Leedo Medical Laboratories, Inc., Houston, Tex.). Briefly, tissues were homogenized using a tissue homogenizer equipped with a 5 mm probe (Ultra-Turrax T8 Homogenizer, IKA Works, Inc. Wilmington, N.C.). Following homogenization, an equal volume of molecular grade chloroform (Sigma Chemical Co., St. Louis, Mo.) was incubated with periodic mixing for 10 min at room temperature. Samples were centrifuged at 12,000 g for 10 min and RNA was precipitated from the top layer by adding an equal volume of molecular grade isopropanol (Sigma Chemical Co.) followed by an overnight incubation at −80° C.

[2] = test system: angiotensin II infused rats; test: Assay A angiotensin II infusion model: heart histology (coronary vascular inflammation, myocardial injury); details: for Vascular inflammation and myocardial injury in the heart: angiotensin II infused rats, aldosterone given to adrenalectomized rats
Collagen III = test: Assay C: Collagen III mRNA in left ventricle (TaqMan); details: for Collagen-III mRNA: individual rats; for Collagen-III mRNA, Mean: group mean
Protocol: as §1, §2, §3, §5, §4, §6, §7

osteopontin = test: Assay A angiotensin II infusion model: osteopontin immunostaining of hearts; details: angiotensin II infused, saline-drinking rats; eplerenone 100 mpk
Protocol: Male Wistar rats (n—50, 10/group; BW=200 g)
2. Angiotensin 11 (25 ng/min, sc via aizet minipump)
Osteopontin (also known as early T-cell activation-1, Eta-1) is a secreted glycoprotein with pro-inflammatory characteristics that mediates chemoattraction, activation and migration of monocytes.

[3] = 14 days of treatment, relative to cyclophilin expression, listed as Eplerenone + aldosterone + salt
[4] = 30 days of treatment, relative to cyclophilin expression, listed as Eplerenone + aldosterone + salt
[5] = mean ± SEM after 7 days of treatment, relative to cyclophilin expression
[6] = Table 9.14, 7-day protocol, listed as Aldosterone + salt
[7] = 14 days of treatment, relative to cyclophilin expression, listed as Aldosterone + salt
[8] = 30 days of treatment, relative to cyclophilin expression, listed as Aldosterone + salt

COC(=O)[C@@H]1CC2=CC(=O)CC[C@]2(C)[C@@]23O[C@@H]2C[C@@]2(C)[C@@H](CC[C@@]24CCC(=O)O4)[C@H]13 [eplerenone, Pregn-4-ene-7,21-dicarboxylic acid, 9,11-epoxy-17-hydroxy-3-oxo-, γ-lactone, methyl ester, (7α, 11α, 17β) -]
ICAM, Mean ([1]; 7 days of treatment): 0.83 AU
ICAM, Mean ([1]; 14 days of treatment): 1.19 AU
ICAM, Mean ([1]; 30 days of treatment): 1.22 AU
ICAM ([1]; 7 days of treatment, listed as Eplerenone + aldosterone + salt): 0.91 AU and 0.89 AU (2×) and 0.40 AU and 0.58 AU and 1.00 AU
ICAM ([1]; 14 days of treatment, listed as Eplerenone + aldosterone + salt): 1.20 AU and 0.95 AU and 1.26 AU and 1.56 AU and 0.98 AU (2×) and 0.79 AU and 0.83 AU
ICAM ([1]; 30 days of treatment, listed as Eplerenone + aldosterone + salt): 1.21 AU and 1.26 AU and 0.60 AU and 0.99 AU
ICAM-1 mRNA expression in myocardium [1]: significantly reduced; also recorded: inhibition of early time-course expression of myocardial ICAM-1 and VCAM-1
Collagen type-I message (Collagen I): modest increase
Collagen-I mRNA, Mean (Collagen I; group mean, 30 days of treatment): 2.53 AU
Collagen-I mRNA (Collagen I; [3]): 0.90 AU and 1.14 AU and 0.50 AU
Collagen-I mRNA (Collagen I; [4]): 2.98 AU and 2.90 AU
Collagen-I (collagen type I mRNA) (Collagen I; [5]): 0.85 ± 0.15 AU
Vascular inflammation and myocardial injury in the heart [2]: prevention by eplerenone (epoxymexrenone) of vascular inflammation in the heart
Animals with vascular inflammatory lesions in the coronary arteries ([2]; out of ten animals per group, angiotensin II/salt, 4 weeks, eplerenone 100 mpk): only one of the ten
Collagen-III mRNA (Collagen III; [3]): 0.60 AU (2×) and 1.70 AU and 1.81 AU and 1.80 AU
Collagen-III mRNA (Collagen III; [4]): 0.72 AU and 0.89 AU and 0.73 AU
Collagen-III (collagen type III mRNA) (Collagen III; [5]): 1.09 ± 0.21 AU
Collagen-III (collagen type III mRNA) (Collagen III; mean ± SEM after 30 days of treatment, relative to cyclophilin expression): 1.53 ± 0.23 AU
Osteopontin expression in the heart (immunostaining) (osteopontin): prevented osteopontin expression

C[C@]12CCC(=O)C=C1CC[C@@H]1[C@@H]2[C@@H](O)C[C@]2(C=O)[C@@H](C(=O)CO)CC[C@@H]12 [aldosterone]
ICAM, Mean ([1]; 14 days of treatment): 1.47 AU
ICAM, Mean ([1]; 30 days of treatment): 1.81 AU
ICAM ([1]; 7 days of treatment, listed as Aldosterone + salt): 1.39 AU and 0.80 AU and 1.68 AU
ICAM ([1]; 14 days of treatment, listed as Aldosterone + salt): 1.16 AU
ICAM ([1]; 30 days of treatment, listed as Aldosterone + salt): 1.50 AU
ICAM-1 mRNA expression in myocardium [1]: upregulated at day 14 and 30
Collagen type-I message (Collagen I): modest increase
Collagen-I mRNA (Collagen I; [6]): 0.84 AU and 1.40 AU
Collagen-I mRNA (Collagen I; [7]): 0.25 AU and 1.00 AU and 1.20 AU and 1.70 AU and 0.43 AU
Collagen-I mRNA (Collagen I; [8]): 2.20 AU
Collagen-I (collagen type I mRNA) (Collagen I; mean ± SEM after 14 days of treatment, relative to cyclophilin expression): 1.33 ± 0.24 AU
Vascular inflammation and myocardial injury in the heart [2]: restored the severe coronary and myocardial inflammation and injury
Collagen-III mRNA (Collagen III; [6]): 0.65 AU and 1.30 AU
Collagen-III mRNA, Mean (Collagen III; 14 days of treatment): 1.08 AU
Collagen-III mRNA, Mean (Collagen III; 30 days of treatment): 1.39 AU
Collagen-III mRNA (Collagen III; [7]): 0.76 AU and 1.80 AU and 0.44 AU and 1.39 AU and 0.59 AU
Collagen-III mRNA (Collagen III; [8]): 0.75 AU and 0.58 AU and 0.72 AU
Osteopontin expression in the heart (immunostaining) (osteopontin): restored osteopontin expression
